Laboratory results reported in publication PMC10176470, “Engaging a Non-catalytic Cysteine Residue Drives Potent and Selective Inhibition of Caspase-6” (Journal of the American Chemical Society, 2023).
Like-named read-outs stand apart in the source and are kept apart here.

What was measured:
Assay type in all cases: cell-based
[1] = biological target: proteins of HEK293T cells transiently overexpressing caspase-6 (Homo sapiens, UniProt Q12905); settings: exp_ref Probe; protein ILF2 (Q12905); analysis C6
[2] = biological target: proteins of HEK293T cells transiently overexpressing caspase-6 (Homo sapiens, UniProt P62913); settings: protein RPL11 (P62913)
[3] = biological target: T1, proteins of HEK293T cells transiently overexpressing caspase-6 (Homo sapiens, UniProt P30041); settings: protein PRDX6 (P30041)
T1 sequence (P30041 1-224): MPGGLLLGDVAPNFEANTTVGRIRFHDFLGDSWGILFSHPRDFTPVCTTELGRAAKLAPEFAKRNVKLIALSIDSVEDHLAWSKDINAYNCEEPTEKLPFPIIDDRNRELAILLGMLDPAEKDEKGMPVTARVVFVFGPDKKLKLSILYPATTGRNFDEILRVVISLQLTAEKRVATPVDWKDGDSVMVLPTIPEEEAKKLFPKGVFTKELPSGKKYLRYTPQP

[4] = biological target: proteins of HEK293T cells transiently overexpressing caspase-6 (Homo sapiens, UniProt Q13263); settings: protein TRIM28 (Q13263)
[5] = biological target: proteins of HEK293T cells transiently overexpressing caspase-6 (Homo sapiens, UniProt P04181); settings: exp_ref Probe; protein OAT (P04181); analysis C6
[6] = biological target: proteins of HEK293T cells transiently overexpressing caspase-6 (Homo sapiens, UniProt Q9BRX8); settings: Probe; protein FAM213A Q9BRX8
[7] = biological target: proteins of HEK293T cells transiently overexpressing caspase-6 (Homo sapiens, UniProt Q86VP6); settings: exp_ref Probe; protein CAND1 (Q86VP6); analysis C6
[8] = biological target: proteins of HEK293T cells transiently overexpressing caspase-6 (Homo sapiens, UniProt O95373); settings: Probe; protein IPO7 O95373
[9] = biological target: proteins of HEK293T cells transiently overexpressing caspase-6 (Homo sapiens, UniProt P40227); settings: exp_ref Probe; protein CCT6A (P40227); analysis C6
[10] = biological target: proteins of HEK293T cells transiently overexpressing caspase-6 (Homo sapiens, UniProt P25786); settings: Probe; protein PSMA1 P25786
[11] = biological target: proteins of HEK293T cells transiently overexpressing caspase-6 (Homo sapiens, UniProt P49189); settings: exp_ref Probe; protein ALDH9A1 (P49189); analysis C6
[12] = biological target: proteins of HEK293T cells transiently overexpressing caspase-6 (Homo sapiens, UniProt P35998); settings: exp_ref Probe; protein PSMC2 (P35998); analysis C6
[13] = biological target: proteins of HEK293T cells transiently overexpressing caspase-6 (Homo sapiens, UniProt P84090); settings: Probe; protein ERH P84090
[14] = biological target: proteins of HEK293T cells transiently overexpressing caspase-6 (Homo sapiens, UniProt P43487); settings: exp_ref Probe; protein RANBP1 (P43487); analysis C6
[15] = biological target: proteins of HEK293T cells transiently overexpressing caspase-6 (Homo sapiens, UniProt P46777); settings: exp_ref Probe; protein RPL5 (P46777); analysis C6
[16] = biological target: proteins of HEK293T cells transiently overexpressing caspase-6 (Homo sapiens, UniProt Q9H7Z7); settings: protein PTGES2 (Q9H7Z7)
[17] = biological target: proteins of HEK293T cells transiently overexpressing caspase-6 (Homo sapiens, UniProt Q04917); settings: Probe; protein YWHAH Q04917
[18] = biological target: proteins of HEK293T cells transiently overexpressing caspase-6 (Homo sapiens, UniProt P50991); settings: exp_ref Probe; protein CCT4 (P50991); analysis C6
[19] = biological target: proteins of HEK293T cells transiently overexpressing caspase-6 (Homo sapiens, UniProt P08865); settings: exp_ref Probe; protein RPSA (P08865); analysis C6
[20] = biological target: proteins of HEK293T cells transiently overexpressing caspase-6 (Homo sapiens, UniProt P14625); settings: exp_ref Probe; protein HSP90B1 (P14625); analysis C6
[21] = biological target: T2, proteins of HEK293T cells transiently overexpressing caspase-6 (Homo sapiens, UniProt P04075); settings: protein ALDOA (P04075)
T2 sequence (P04075 1-364): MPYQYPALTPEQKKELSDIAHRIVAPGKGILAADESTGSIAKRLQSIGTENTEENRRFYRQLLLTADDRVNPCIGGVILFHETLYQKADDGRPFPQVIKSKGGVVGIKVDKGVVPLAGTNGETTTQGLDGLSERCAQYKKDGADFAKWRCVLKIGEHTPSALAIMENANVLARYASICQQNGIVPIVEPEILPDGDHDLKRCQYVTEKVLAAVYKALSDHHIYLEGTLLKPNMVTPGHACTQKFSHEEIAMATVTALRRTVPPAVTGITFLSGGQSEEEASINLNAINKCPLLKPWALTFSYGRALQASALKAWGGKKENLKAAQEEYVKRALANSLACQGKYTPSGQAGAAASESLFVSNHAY

Chain of proteins of HEK293T cells transiently overexpressing caspase-6 (Homo sapiens, UniProt Q9H7Z7) (Q9H7Z7 whole entry): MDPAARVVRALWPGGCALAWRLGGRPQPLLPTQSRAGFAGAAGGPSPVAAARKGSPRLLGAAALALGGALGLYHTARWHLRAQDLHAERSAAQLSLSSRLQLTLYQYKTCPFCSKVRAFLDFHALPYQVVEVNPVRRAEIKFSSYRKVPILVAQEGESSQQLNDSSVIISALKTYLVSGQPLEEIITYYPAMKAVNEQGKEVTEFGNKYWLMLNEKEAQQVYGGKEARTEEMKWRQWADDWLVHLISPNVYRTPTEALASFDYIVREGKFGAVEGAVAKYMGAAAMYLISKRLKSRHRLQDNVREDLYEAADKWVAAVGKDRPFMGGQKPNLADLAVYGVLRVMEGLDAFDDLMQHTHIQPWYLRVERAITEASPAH
Chain of proteins of HEK293T cells transiently overexpressing caspase-6 (Homo sapiens, UniProt Q13263) (Q13263 whole entry): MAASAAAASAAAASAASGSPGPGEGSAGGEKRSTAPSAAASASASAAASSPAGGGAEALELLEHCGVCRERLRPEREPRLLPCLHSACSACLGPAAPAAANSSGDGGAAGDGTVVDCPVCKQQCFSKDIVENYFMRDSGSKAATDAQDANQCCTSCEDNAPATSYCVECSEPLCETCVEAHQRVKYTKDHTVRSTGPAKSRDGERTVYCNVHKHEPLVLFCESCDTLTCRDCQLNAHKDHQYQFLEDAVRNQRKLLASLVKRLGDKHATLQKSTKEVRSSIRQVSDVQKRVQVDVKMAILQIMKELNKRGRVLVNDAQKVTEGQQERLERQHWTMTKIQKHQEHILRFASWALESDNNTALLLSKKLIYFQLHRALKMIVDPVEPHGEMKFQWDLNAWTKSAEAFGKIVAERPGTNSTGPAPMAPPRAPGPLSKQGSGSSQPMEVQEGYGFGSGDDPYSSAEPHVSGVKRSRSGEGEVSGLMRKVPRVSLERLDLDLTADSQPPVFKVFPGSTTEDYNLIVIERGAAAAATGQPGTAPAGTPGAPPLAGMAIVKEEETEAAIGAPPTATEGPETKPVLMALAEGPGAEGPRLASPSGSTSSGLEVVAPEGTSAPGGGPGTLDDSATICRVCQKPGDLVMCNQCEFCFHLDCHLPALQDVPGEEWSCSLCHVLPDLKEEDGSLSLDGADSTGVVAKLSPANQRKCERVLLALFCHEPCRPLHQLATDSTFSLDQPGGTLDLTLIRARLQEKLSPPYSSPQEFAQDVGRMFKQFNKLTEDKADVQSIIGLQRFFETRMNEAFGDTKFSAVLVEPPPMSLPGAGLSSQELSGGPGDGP
Chain of proteins of HEK293T cells transiently overexpressing caspase-6 (Homo sapiens, UniProt Q86VP6) (Q86VP6 whole entry): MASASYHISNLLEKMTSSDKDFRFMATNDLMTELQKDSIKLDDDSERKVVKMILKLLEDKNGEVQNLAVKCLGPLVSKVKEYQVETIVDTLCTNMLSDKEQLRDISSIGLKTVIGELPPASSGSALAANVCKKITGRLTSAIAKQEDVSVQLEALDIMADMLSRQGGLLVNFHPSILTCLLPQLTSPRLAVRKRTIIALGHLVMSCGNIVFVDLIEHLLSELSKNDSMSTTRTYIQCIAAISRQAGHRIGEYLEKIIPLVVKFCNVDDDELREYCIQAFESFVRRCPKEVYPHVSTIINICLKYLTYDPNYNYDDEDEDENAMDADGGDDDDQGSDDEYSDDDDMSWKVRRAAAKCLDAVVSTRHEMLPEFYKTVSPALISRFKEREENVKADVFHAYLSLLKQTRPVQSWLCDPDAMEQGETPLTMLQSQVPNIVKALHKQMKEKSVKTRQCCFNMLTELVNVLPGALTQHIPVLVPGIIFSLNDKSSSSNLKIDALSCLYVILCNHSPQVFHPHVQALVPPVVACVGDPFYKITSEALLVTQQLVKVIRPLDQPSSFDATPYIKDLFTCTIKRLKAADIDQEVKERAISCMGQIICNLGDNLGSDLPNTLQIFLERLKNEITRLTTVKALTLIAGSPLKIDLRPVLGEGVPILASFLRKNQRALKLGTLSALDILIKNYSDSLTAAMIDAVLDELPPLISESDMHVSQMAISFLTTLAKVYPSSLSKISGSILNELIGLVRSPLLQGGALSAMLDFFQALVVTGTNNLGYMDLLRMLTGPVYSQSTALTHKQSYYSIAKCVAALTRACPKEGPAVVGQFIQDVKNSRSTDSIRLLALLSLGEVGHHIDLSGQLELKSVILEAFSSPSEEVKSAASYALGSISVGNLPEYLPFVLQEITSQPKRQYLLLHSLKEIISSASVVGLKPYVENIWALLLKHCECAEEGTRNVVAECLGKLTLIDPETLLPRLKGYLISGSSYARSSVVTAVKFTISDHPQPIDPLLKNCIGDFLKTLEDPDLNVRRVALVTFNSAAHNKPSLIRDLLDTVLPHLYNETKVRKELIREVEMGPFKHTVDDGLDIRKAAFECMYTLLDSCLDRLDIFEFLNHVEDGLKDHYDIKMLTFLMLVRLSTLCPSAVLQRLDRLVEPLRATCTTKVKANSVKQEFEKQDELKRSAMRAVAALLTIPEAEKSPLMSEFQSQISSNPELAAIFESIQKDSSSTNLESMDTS
Chain of proteins of HEK293T cells transiently overexpressing caspase-6 (Homo sapiens, UniProt Q04917) (Q04917 whole entry): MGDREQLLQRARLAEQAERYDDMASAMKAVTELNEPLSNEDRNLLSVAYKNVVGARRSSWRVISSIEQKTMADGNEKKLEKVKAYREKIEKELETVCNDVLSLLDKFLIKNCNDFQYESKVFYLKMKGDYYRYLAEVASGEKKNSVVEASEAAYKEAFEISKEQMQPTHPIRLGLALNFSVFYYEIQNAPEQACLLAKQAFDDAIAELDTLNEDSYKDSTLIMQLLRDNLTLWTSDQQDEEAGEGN
Chain of proteins of HEK293T cells transiently overexpressing caspase-6 (Homo sapiens, UniProt P25786) (P25786 whole entry): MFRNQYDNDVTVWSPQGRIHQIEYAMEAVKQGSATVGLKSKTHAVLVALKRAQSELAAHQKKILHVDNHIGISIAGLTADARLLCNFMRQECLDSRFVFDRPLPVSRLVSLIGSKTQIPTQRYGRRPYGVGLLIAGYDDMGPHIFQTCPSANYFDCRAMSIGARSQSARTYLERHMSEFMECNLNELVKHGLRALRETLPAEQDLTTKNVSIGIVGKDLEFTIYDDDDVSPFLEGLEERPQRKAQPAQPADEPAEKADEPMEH
Chain of proteins of HEK293T cells transiently overexpressing caspase-6 (Homo sapiens, UniProt Q12905) (Q12905 whole entry): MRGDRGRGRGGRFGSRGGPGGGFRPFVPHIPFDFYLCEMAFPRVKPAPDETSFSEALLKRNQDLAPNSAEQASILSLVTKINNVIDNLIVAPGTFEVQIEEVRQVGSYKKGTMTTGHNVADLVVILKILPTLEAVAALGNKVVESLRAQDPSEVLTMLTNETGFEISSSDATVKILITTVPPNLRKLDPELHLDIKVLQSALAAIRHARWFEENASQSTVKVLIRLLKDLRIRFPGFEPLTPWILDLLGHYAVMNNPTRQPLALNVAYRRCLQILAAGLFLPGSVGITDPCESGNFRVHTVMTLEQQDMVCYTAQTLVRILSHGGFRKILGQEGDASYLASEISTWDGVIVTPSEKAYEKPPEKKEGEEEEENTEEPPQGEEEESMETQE
Chain of proteins of HEK293T cells transiently overexpressing caspase-6 (Homo sapiens, UniProt P84090) (P84090 whole entry): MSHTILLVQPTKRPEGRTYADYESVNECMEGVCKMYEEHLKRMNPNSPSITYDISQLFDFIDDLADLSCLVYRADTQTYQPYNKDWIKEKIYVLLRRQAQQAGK
Chain of proteins of HEK293T cells transiently overexpressing caspase-6 (Homo sapiens, UniProt P40227) (P40227 whole entry): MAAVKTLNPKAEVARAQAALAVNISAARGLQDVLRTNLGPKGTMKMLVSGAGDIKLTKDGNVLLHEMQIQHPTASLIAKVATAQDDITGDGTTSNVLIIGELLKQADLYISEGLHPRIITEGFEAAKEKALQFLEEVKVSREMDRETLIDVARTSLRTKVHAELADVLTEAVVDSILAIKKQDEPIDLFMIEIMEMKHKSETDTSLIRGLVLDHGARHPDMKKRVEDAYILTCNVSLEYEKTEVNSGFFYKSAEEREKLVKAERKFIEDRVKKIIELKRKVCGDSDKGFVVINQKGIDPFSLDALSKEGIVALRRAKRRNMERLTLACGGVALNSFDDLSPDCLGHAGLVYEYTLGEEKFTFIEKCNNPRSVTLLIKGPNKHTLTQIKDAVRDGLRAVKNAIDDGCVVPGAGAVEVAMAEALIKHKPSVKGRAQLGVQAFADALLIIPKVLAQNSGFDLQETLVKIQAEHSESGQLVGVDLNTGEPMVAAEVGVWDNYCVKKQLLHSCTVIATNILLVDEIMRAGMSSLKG
Chain of proteins of HEK293T cells transiently overexpressing caspase-6 (Homo sapiens, UniProt Q9BRX8) (Q9BRX8 whole entry): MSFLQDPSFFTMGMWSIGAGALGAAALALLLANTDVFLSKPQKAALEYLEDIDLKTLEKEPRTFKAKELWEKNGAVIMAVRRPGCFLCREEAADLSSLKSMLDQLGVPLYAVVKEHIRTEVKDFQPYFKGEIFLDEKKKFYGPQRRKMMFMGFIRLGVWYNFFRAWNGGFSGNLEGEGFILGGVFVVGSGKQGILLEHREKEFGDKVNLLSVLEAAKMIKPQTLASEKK
Chain of proteins of HEK293T cells transiently overexpressing caspase-6 (Homo sapiens, UniProt P43487) (P43487 whole entry): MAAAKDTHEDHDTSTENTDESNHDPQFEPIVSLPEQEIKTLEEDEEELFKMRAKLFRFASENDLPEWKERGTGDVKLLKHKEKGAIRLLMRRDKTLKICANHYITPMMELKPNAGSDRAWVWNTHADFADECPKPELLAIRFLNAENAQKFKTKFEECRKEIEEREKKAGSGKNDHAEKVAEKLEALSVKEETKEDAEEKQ
Chain of proteins of HEK293T cells transiently overexpressing caspase-6 (Homo sapiens, UniProt P49189) (P49189 whole entry): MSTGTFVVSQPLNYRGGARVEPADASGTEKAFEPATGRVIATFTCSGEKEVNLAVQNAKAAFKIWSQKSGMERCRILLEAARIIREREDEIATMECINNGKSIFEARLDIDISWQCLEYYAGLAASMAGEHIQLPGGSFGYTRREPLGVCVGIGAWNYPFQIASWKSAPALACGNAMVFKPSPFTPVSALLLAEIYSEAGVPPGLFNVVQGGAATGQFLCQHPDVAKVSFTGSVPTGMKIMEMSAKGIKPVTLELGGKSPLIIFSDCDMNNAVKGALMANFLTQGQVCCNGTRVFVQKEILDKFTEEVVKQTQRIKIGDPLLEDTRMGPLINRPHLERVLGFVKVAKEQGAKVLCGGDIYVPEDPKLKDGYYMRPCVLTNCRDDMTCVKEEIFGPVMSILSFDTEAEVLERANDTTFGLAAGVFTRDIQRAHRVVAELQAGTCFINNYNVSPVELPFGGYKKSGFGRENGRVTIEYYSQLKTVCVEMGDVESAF

For `C#CCOc1ccc([C@@H]2C[C@@H](C(=O)Nc3ccc(OC(F)(F)F)cc3)CN(S(=O)(=O)C=C)C2)cc1` (relative stereo) [13-t], which enrich.exp.med [1] is on record?
Its enrich.exp.med is 0.9081.

What about the enrich.exp.med.lin [2] of the same compound?
The enrich.exp.med.lin was 2.408.

What about the enrich.exp.med.log2 [2] of the same compound?
The enrich.exp.med.log2 was 1.268.

And the enrich.exp.med ([2]; exp_ref Probe, analysis C6)?
The enrich.exp.med was 1.268.

And the enrich.exp.med ([3]; exp_ref Probe, analysis C6)?
The enrich.exp.med was 0.7015.

And the enrich.exp.med.lin [3]?
The enrich.exp.med.lin was 1.626.

What about the enrich.exp.med.log2 [3] of the same compound?
The enrich.exp.med.log2 was 0.7015.

And the enrich.exp.med ([4]; exp_ref Probe, analysis C6)?
The enrich.exp.med was 0.8833.

What about the enrich.exp.med.lin [4] of the same compound?
Its enrich.exp.med.lin is 1.845.

What about the enrich.exp.med.log2 [4] of the same compound?
The enrich.exp.med.log2 was 0.8833.

What about the enrich.exp.med [5] of the same compound?
The enrich.exp.med was 1.012.

What about the enrich.exp.med [6] of the same compound?
The enrich.exp.med was -8.503.

What about the enrich.exp.med [7] of the same compound?
Its enrich.exp.med is 0.5563.

And the enrich.exp.med [8]?
Its enrich.exp.med is -0.5106.

What about the enrich.exp.med [9] of the same compound?
Its enrich.exp.med is 0.2516.

What about the enrich.exp.med [10] of the same compound?
The enrich.exp.med was -2.151.

And the enrich.exp.med [11]?
Its enrich.exp.med is 0.2139.

What about the enrich.exp.med [12] of the same compound?
The enrich.exp.med was 0.5412.

And the enrich.exp.med [13]?
The enrich.exp.med was -0.8193.

What about the enrich.exp.med [14] of the same compound?
Its enrich.exp.med is 0.3695.

What about the enrich.exp.med [15] of the same compound?
Its enrich.exp.med is 0.3142.

And the enrich.exp.med.lin [16]?
The enrich.exp.med.lin was 8.188.

What about the enrich.exp.med.log2 [16] of the same compound?
Its enrich.exp.med.log2 is 3.034.

What about the enrich.exp.med.lin ([16]; Expt Probe, analysis C6) of the same compound?
Its enrich.exp.med.lin is 8.188.

What about the enrich.exp.med.log2 ([16]; Expt Probe, analysis C6) of the same compound?
The enrich.exp.med.log2 was 3.034.

And the enrich.exp.med ([16]; exp_ref Probe, analysis C6)?
Its enrich.exp.med is 3.034.

What about the enrich.exp.med [17] of the same compound?
Its enrich.exp.med is -1.452.

And the enrich.exp.med [18]?
The enrich.exp.med was 0.3881.

And the enrich.exp.med [19]?
Its enrich.exp.med is -0.2936.

And the enrich.exp.med [20]?
Its enrich.exp.med is 0.4413.

And the enrich.exp.med ([21]; exp_ref Probe, analysis C6)?
Its enrich.exp.med is 0.8107.

What about the enrich.exp.med.lin [21] of the same compound?
Its enrich.exp.med.lin is 1.754.

What about the enrich.exp.med.log2 [21] of the same compound?
The enrich.exp.med.log2 was 0.8107.
